The record followed here is ChEMBL document CHEMBL1255263, “Activity of the Diaminopyrimidine AR-709 against recently collected multidrug-resistant isolates of invasive Streptococcus pneumoniae from North America” (2008).

Usually MIC50 stands for the lowest concentration that inhibits either 50% of growth or 50% of the strains tested, depending on the study. Low values mean greater potency, high ones weaker potency. As usually defined, the MIC90 is the lowest concentration that inhibits either 90% of growth or 90% of the strains tested, depending on the study. A high value points to lower susceptibility.

Molecules are shown by their SMILES. Converted amounts (≈) assume the structure as drawn.

Assay [1] concerns Streptococcus pneumoniae. Nature of the assay: Antibacterial activity against multidrug resistant Streptococcus pneumoniae […] assessed as resistant strains by CLSI microdilution susceptibility testing method. The class given is functional. In general terms: In broth dilution the organism is exposed to a series of concentrations in liquid medium.
Assay [2] concerns Streptococcus pneumoniae. Kind of assay: Antibacterial activity against multidrug resistant Streptococcus pneumoniae […] by CLSI microdilution susceptibility testing method. The class given is functional.

For the molecule `CC1(C)S[C@@H]2[C@H](NC(=O)Cc3ccccc3)C(=O)N2[C@H]1C(=O)O` [PENICILLIN G], the Activity in assay [1] was 85.7%. In assay [2], this molecule gave an MIC50 of 4 µg/mL (≈ 12 µM) and an MIC90 of 4 µg/mL (≈ 12 µM).

As for `CO/N=C(\C(=O)N[C@@H]1C(=O)N2C(C(=O)O)=C(COC(C)=O)CS[C@H]12)c1csc(N)n1` [CEFOTAXIME], the Activity in assay [1] is listed as 41.1%. Also, in assay [2], the MIC50 was 1 µg/mL (≈ 2.2 µM) and the MIC90 was determined as 2 µg/mL (≈ 4.39 µM).

For the molecule `CC1(C)S[C@@H]2[C@H](NC(=O)[C@H](N)c3ccc(O)cc3)C(=O)N2[C@H]1C(=O)O` [AMOXICILLIN], the Activity in assay [1] stood at 48.2%. In assay [2], the MIC50 was 2 µg/mL (≈ 5.47 µM) and the MIC90 came out at 8 µg/mL (≈ 21.9 µM).

As to `C[C@H]1c2cccc(O)c2C(=O)C2=C(O)[C@]3(O)C(=O)C(C(N)=O)=C(O)[C@@H](N(C)C)[C@@H]3[C@@H](O)[C@@H]21.O` [DOXYCYCLINE], the Activity in assay [1] is recorded as 40.6%. Moreover, in assay [2], the MIC50 was determined as 0.12 µg/mL and the MIC90 is 8 µg/mL.

With `C[C@H]1COc2c(N3CCN(C)CC3)c(F)cc3c(=O)c(C(=O)O)cn1c23.C[C@H]1COc2c(N3CCN(C)CC3)c(F)cc3c(=O)c(C(=O)O)cn1c23.O` [LEVOFLOXACIN], the Activity in assay [1] is reported as 21%. In assay [2], this molecule had an MIC50 of 1 µg/mL and an MIC90 of more than 8 µg/mL.

On to `CC[C@H]1OC(=O)[C@H](C)[C@@H](O[C@H]2C[C@@](C)(OC)[C@@H](O)[C@H](C)O2)[C@H](C)[C@@H](O[C@@H]2O[C@H](C)C[C@H](N(C)C)[C@H]2O)[C@](C)(O)C[C@@H](C)C(=O)[C@H](C)[C@@H](O)[C@]1(C)O` [ERYTHROMYCIN], for which the Activity in assay [1] is recorded as 83.5%. Further, in assay [2], the MIC50 amounted to 8 µg/mL (≈ 10.9 µM) and the MIC90 is more than 32 µg/mL.

Consider `COc1cc(Cc2cnc(N)nc2N)c2cc(Cc3c(C(=O)N(C)C)[nH]c4ccc(Cl)cc34)oc2c1OC`, for which, in assay [2], the MIC50 is 0.25 µg/mL (≈ 0.467 µM) and the MIC90 amounted to 0.5 µg/mL (≈ 0.935 µM).

`CCC[C@@H]1C[C@@H](C(=O)N[C@@H]([C@H]2O[C@H](SC)[C@H](O)[C@@H](O)[C@H]2O)[C@H](C)Cl)N(C)C1` [CLINDAMYCIN]: the Activity in assay [1] is on record as 34.8%. For the same molecule, in assay [2], the MIC50 is 0.06 µg/mL (≈ 0.141 µM) and the MIC90 is more than 8 µg/mL.

With `C[C@@H](O)[C@H]1C(=O)N2C(C(=O)O)=C(S[C@@H]3CN[C@H](C(=O)N(C)C)C3)[C@H](C)[C@H]12` [MEROPENEM], in assay [1], the Activity is on record as 75.9%. In assay [2], this molecule came in with an MIC50 of 0.5 µg/mL (≈ 1.3 µM) and an MIC90 of 1 µg/mL (≈ 2.61 µM).
